# Assay results as given in the supplement of paper PMC9663587.
# What was measured:
# [1] = compound: T1, C=CC(=O)Nc1ccc(C(=O)Nc2[nH]nc3c2CN(C(=O)N[C@H](CN(C)C)c2ccccc2)C3(C)C)cc1 [YKL-5-124]
# [2] = compound: CCC(=O)Nc1ccc(C(=O)Nc2ccc(Nc3ncc4c(n3)N(C)c3ccc(C)cc3C(=O)N4C)cc2)cc1 [FMF-03-145-1]
# [3] = compound: CO[C@H]1C[C@@H]2CC[C@@H](C)[C@@](O)(O2)C(=O)C(=O)N2CCCC[C@H]2C(=O)O[C@H]([C@H](C)C[C@@H]2CC[C@@H](OCCO)[C@H](OC)C2)CC(=O)[C@H](C)/C=C(\C)[C@@H](O)[C@@H](OC)C(=O)[C@H](C)C[C@H](C)/C=C/C=C/C=C/1C [Everolimus]
# [4] = compound: COc1cccc(OCCCN)c1-c1cc(Nc2cnc(C#N)cn2)n[nH]1
# [5] = compound: CC(C)n1nc(-c2ccc3oc(N)nc3c2)c2c(N)ncnc21 [INK128/MLN0128]; assay: increase in dead-cell fraction, 72 h; higher = more death;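 further: breast cancer cell lines in 384-well plates, stained with Hoechst plus LIVE/DEAD far red dye and imaged, cells above an LDR intensity threshold counted dead, Hoechst-negative corpses included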
# [6] = compound: CC1(CCN(CC1)C2=CN=C(C(=N2)N)C3=C(C(=CC=C3)Cl)Cl)N [SHP099]; assay: as above
# [7] = compound: CN(C)C/C=C/C(=O)NC1=CC=C(C=C1)C(=O)NC2=CC=CC(=C2)NC3=NC=NC(=C3)C4=CNC5=CC=CC=C54 [THZ-P1-2]; assay: as above
# [8] = compound: CN1CCN(CCOc2cc(OC3CCOCC3)c3c(Nc4c(Cl)ccc5c4OCO5)ncnc3c2)CC1 [Saracatinib/AZD0530]; assay: as above
# [9] = compound: CNCc1ccc(-c2[nH]c3cc(F)cc4c3c2CCNC4=O)cc1 [Rucaparib]; assay: as above
# [10] = compound: Cc1nc(NC(=O)N2CCC[C@H]2C(N)=O)sc1-c1ccnc(C(C)(C)C(F)(F)F)c1 [Alpelisib/BYL719]; assay: as above
# [11] = compound: T1, YKL-5-124; assay: GR value, 72 h; higher = faster growth (1 = untreated, <0 = killing);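 further: breast cancer and non-malignant breast epithelial lines, nine half-log doses, viable cells counted by Hoechst and LIVE/DEAD dye imaging versus time-zero plates and DMSO controls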
# [12] = compound: CN(C)C/C=C/C(=O)Nc1ccc(C(=O)N2CCC[C@@H](Nc3ncc(Cl)c(-c4c[nH]c5ccccc45)n3)C2)cc1 [THZ531]; assay: as above
# [13] = compound: CC1=C(N=C(N=C1N)[C@H](CC(=O)N)NC[C@@H](C(=O)N)N)C(=O)N[C@@H]([C@H](C2=CN=CN2)OC3C(C(C(C(O3)CO)O)O)OC4C(C(C(C(O4)CO)O)OC(=O)N)O)C(=O)N[C@H](C)[C@H]([C@H](C)C(=O)N[C@@H]([C@@H](C)O)C(=O)NCCC5=NC(=CS5)C6=NC(=CS6)C(=O)NCCC[S+](C)C)O [Bleomycin]; settings: main component drawn
# [14] = compound: CC[C@@]1(O)C(=O)OCc2c1cc1n(c2=O)Cc2cc3c(CN(C)C)c(O)ccc3nc2-1 [Topotecan]
# [15] = compound: COc1cc([C@@H]2c3cc4c(cc3[C@@H](O[C@@H]3O[C@@H]5CO[C@@H](C)O[C@H]5[C@H](O)[C@H]3O)[C@H]3COC(=O)[C@H]23)OCO4)cc(OC)c1O [Etoposide]
# [16] = compound: N.N.Cl[Pt]Cl [Cisplatin]
# 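Wherever GR50, 72 h is given: breast cancer and non-malignant breast epithelial cell lines, Deep Dye Drop or Dye Drop imaging, nine half-log doses, GR normalized to time-zero plates and DMSO-only controls.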
cell line,measurement,setting,value
AU565,"GR50, 72 h",[1],< 0.001 µM
same,"GR50, 72 h",[2],0.00474 µM
same,"GR50, 72 h",[3],0.00185 µM
same,"GR50, 72 h",[4],0.000768 µM
same,increase in dead-cell fraction,[5]; 0.0003162 µM,0.0039
same,increase in dead-cell fraction,[5]; 0.001 µM,0.0034
same,increase in dead-cell fraction,[5]; 0.003162 µM,0.0155
same,increase in dead-cell fraction,[5]; 0.01 µM,0.0233
same,increase in dead-cell fraction,[5]; 0.03162 µM,0.0367
same,increase in dead-cell fraction,[5]; 0.1 µM,0.0543
same,increase in dead-cell fraction,[5]; 0.3162 µM,0.0671
same,increase in dead-cell fraction,[5]; 1 µM,0.084
same,increase in dead-cell fraction,[5]; 3.162 µM,0.244
same,increase in dead-cell fraction,[6]; 0.001 µM,-0.0127
same,increase in dead-cell fraction,[6]; 0.003162 µM,-0.0116
same,increase in dead-cell fraction,[6]; 0.01 µM,-0.0073
same,increase in dead-cell fraction,[6]; 0.03162 µM,-0.0133
same,increase in dead-cell fraction,[6]; 0.1 µM,-0.0124
same,increase in dead-cell fraction,[6]; 0.3162 µM,-0.0047
same,increase in dead-cell fraction,[6]; 1 µM,-0.0147
same,increase in dead-cell fraction,[6]; 3.162 µM,0.0036
same,increase in dead-cell fraction,[6]; 10 µM,-0.0053
same,increase in dead-cell fraction,[7]; 0.01 µM,-0.0013
same,increase in dead-cell fraction,[7]; 0.03162 µM,-0.0105
same,increase in dead-cell fraction,[7]; 0.1 µM,0.0091
same,increase in dead-cell fraction,[7]; 0.3162 µM,-0.0029
same,increase in dead-cell fraction,[7]; 1 µM,-0.0001
same,increase in dead-cell fraction,[7]; 3.162 µM,-0.0022
same,increase in dead-cell fraction,[7]; 10 µM,0.569
same,increase in dead-cell fraction,[8]; 0.001 µM,-0.003
same,increase in dead-cell fraction,[8]; 0.003162 µM,0.0003
same,increase in dead-cell fraction,[8]; 0.01 µM,0.0038
same,increase in dead-cell fraction,[8]; 0.03162 µM,-0.0046
same,increase in dead-cell fraction,[8]; 0.1 µM,-0.0038
same,increase in dead-cell fraction,[8]; 0.3162 µM,-0.0029
same,increase in dead-cell fraction,[8]; 1 µM,0.0012
same,increase in dead-cell fraction,[8]; 3.162 µM,0.0017
same,increase in dead-cell fraction,[8]; 10 µM,0.0305
same,increase in dead-cell fraction,[9]; 0.001 µM,0.0051
same,increase in dead-cell fraction,[9]; 0.003162 µM,-0.0024
same,increase in dead-cell fraction,[9]; 0.01 µM,0.0015
same,increase in dead-cell fraction,[9]; 0.03162 µM,0.0073
same,increase in dead-cell fraction,[9]; 0.1 µM,-0.0049
same,increase in dead-cell fraction,[9]; 0.3162 µM,-0.0044
same,increase in dead-cell fraction,[9]; 1 µM,-0.0017
same,increase in dead-cell fraction,[9]; 3.162 µM,-0.0036
same,increase in dead-cell fraction,[9]; 10 µM,-0.0017
same,increase in dead-cell fraction,[10]; 0.001 µM,0.0064
same,increase in dead-cell fraction,[10]; 0.003162 µM,0.0041
same,increase in dead-cell fraction,[10]; 0.01 µM,0.0062
same,increase in dead-cell fraction,[10]; 0.03162 µM,0.0114
same,increase in dead-cell fraction,[10]; 0.1 µM,0.0193
same,increase in dead-cell fraction,[10]; 0.3162 µM,0.0259
same,increase in dead-cell fraction,[10]; 1 µM,0.0468
same,increase in dead-cell fraction,[10]; 3.162 µM,0.0789
same,increase in dead-cell fraction,[10]; 10 µM,0.222
same,GR value,[11]; 0.001 µM,0.305 GR
same,GR value,[11]; 0.003162 µM,0.28 GR
same,GR value,[11]; 0.01 µM,0.128 GR
same,GR value,[11]; 0.03162 µM,0.0651 GR
same,GR value,[11]; 0.1 µM,-0.0212 GR
same,GR value,[11]; 0.3162 µM,-0.0588 GR
same,GR value,[11]; 1 µM,-0.111 GR
same,GR value,[11]; 3.162 µM,-0.172 GR
same,GR value,[11]; 10 µM,-0.563 GR
same,GR value,[12]; 0.0001 µM,0.925 GR
same,GR value,[12]; 0.0003162 µM,0.936 GR
same,GR value,[12]; 0.001 µM,0.948 GR
same,GR value,[12]; 0.003162 µM,0.994 GR
same,GR value,[12]; 0.01 µM,1.05 GR
same,GR value,[12]; 0.03162 µM,0.786 GR
same,GR value,[12]; 0.1 µM,0.0998 GR
same,GR value,[12]; 0.3162 µM,-0.343 GR
same,GR value,[12]; 1 µM,-0.521 GR
HCC1937,"GR50, 72 h",[1],0.00225 µM
same,"GR50, 72 h",[13],0.187 µM
same,"GR50, 72 h",[2],0.00546 µM
same,"GR50, 72 h",[14],0.0155 µM
same,"GR50, 72 h",[3],> 10 µM
same,"GR50, 72 h",[15],0.355 µM
same,"GR50, 72 h",[4],0.000607 µM
same,"GR50, 72 h",[16],0.777 µM
same,GR value,[11]; 0.001 µM,0.676 GR
same,GR value,[11]; 0.003162 µM,0.451 GR
same,GR value,[11]; 0.01 µM,0.249 GR
same,GR value,[11]; 0.03162 µM,0.165 GR
same,GR value,[11]; 0.1 µM,0.0669 GR
same,GR value,[11]; 0.3162 µM,0.0473 GR
same,GR value,[11]; 1 µM,-0.0273 GR
same,GR value,[11]; 3.162 µM,-0.052 GR
same,GR value,[11]; 10 µM,-0.196 GR
same,GR value,[12]; 0.0001 µM,0.85 GR
same,GR value,[12]; 0.0003162 µM,1 GR
same,GR value,[12]; 0.001 µM,0.958 GR
same,GR value,[12]; 0.003162 µM,1.01 GR
same,GR value,[12]; 0.01 µM,1.09 GR
same,GR value,[12]; 0.03162 µM,1.16 GR
same,GR value,[12]; 0.1 µM,0.954 GR
same,GR value,[12]; 0.3162 µM,0.219 GR
same,GR value,[12]; 1 µM,-0.302 GR
